Test results as given in US20050272750A1, “Novel compound” (AstraZeneca AB, priority 2002, published 2005).

How the values were obtained:
hrCXCR2 = target: T1, hrCXCR2 (Homo sapiens, UniProt P25025); test: Ligand binding assay ([125I]IL-8 displacement, HEK 293 membranes); conditions: [125I]IL-8 binding to membranes of HEK 293 cells expressing hrCXCR2; 1.5 hours at room temperature
T1 construct: expressed in transfected cells; host or cells: HEK 293 cells (ECACC No. 85120602), membranes of the highest expressing clone
T1 sequence (P25025 1-360): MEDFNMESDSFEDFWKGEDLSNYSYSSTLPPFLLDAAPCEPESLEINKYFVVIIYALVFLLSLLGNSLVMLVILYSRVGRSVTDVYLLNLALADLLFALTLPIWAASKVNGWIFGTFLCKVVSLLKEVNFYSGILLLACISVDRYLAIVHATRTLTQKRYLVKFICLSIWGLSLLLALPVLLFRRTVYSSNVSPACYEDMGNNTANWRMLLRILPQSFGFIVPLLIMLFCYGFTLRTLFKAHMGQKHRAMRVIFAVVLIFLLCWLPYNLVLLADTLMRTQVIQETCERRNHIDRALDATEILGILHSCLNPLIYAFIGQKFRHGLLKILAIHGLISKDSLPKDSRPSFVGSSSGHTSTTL
Excerpt: [^125I]IL-8 (human, recombinant) was purchased from Amersham, U.K. with a specific activity of 2,000 Ci/mmol. All other chemicals were of analytical grade. High levels of hrCXCR2 were expressed in HEK 293 cells (human embryo kidney 293 cells ECACC No. 85120602) (Lee et al. (1992) J. Biol. Chem. 267 pp 16283-16291). hrCXCR2 cDNA was amplified and cloned from human neutrophil mRNA. The DNA was cloned into PCRScript (Stratagene) and clones were identified using DNA. The coding sequence was sub-cloned into the eukaryotic expression vector RcCMV (Invitrogen). Plasmid DNA was prepared using Quiagen Megaprep 2500 and transfected into HEK 293 cells using Lipofectamine reagent (Ginbco BRL). Cells of the highest expressing clone were harvested in phosphate-buffered saline containing 0.2% (w/v) ethylenediaminetetraacetic acid (EDTA) and centrifuged (200 g, 5 min.). The cell pellet was resuspended in ice cold homogenisation buffer [[…] HEPES (pH 7.4), 1 mM dithiothreitol 1 mM EDTA and a panel of protease inhibitors (1 mM phenyl methyl sulphonyl fluoride, 2 μg/ml soybean trypsin inhibitor, 3 mM benzamidine, 0.5 μg/ml leupeptin and 100 μg/ml bacitracin)] and the cells left to swell for 10 minutes. […] The backing plate was removed from the MultiScreen plate assembly, the filters dried at room temperature, punched out and then counted on a Cobra γ-counter.

[1] = target: T2, CXCR2 receptor in human neutrophils (Homo sapiens, UniProt P25025); test: Intracellular calcium mobilisation assay (GROα-stimulated, fluo-3, FLIPR); type: cell-based; conditions: A50 concentration of GROα, fluo-3 fluorescence
T2 construct: Human neutrophils were prepared from EDTA-treated peripheral blood; endogenous in cells; host or cells: human neutrophils from peripheral blood
T2 sequence (P25025 1-360): T1 sequence (P25025 1-360)
Experimental: Intracellular Calcium Mobilisation Assay
Human neutrophils were prepared from EDTA-treated peripheral blood, as previously described (Baly et al. (1997) Methods in Enzymology 287 pp70-72), in storage buffer [Tyrode's salt solution (137 mM NaCl 2.7 mM KCl, 0.4 mM NaH2PO4) supplemented with 5.7 mM glucose and 10 mM HEPES (pH 7.4)].
The chemokine GROα (human, recombinant) was purchased from R&D Systems (Abingdon, U.K.). All other chemicals were of analytical grade. Changes in intracellular free calcium were measured fluorometrically by loading neutrophils with the calcium sensitive fluorescent dye, fluo-3, as described previously (Merritt et al. (1990) Biochem. J. 269, pp513-519). Cells were loaded for 1 hour at 37° C. in loading buffer (storage buffer with 0.1% (w/v) gelatin) containing 5 μM fluo-3 AM ester, washed with loading buffer and then resuspended in Tyrode's salt solution supplemented with 5.7 mM glucose, 0.1% (w/v) bovine serum albumin (BSA), 1.8 mM CaCl2 and 1 mM MgCl2. […]
A compound of formula (1) according to the Examples was pre-dissolved in DMSO and added to a final concentration of 0.1% (v/v) DMSO. Assays were initiated by the addition of an A50 concentration of GROα and the transient increase in fluo-3 fluorescence (λEx=490 nm and λEm=520 nm) monitored using a FLIPR (Fluorometric Imaging Plate Reader, Molecular Devices, Sunnyvale, U.S.A).

C[C@H](O)[C@H](CO)Nc1nc(SCc2cccc(F)c2F)nc2[nH]c(=O)sc12 [compound of formula (I), 5-[((2,3-difluorophenyl)methyl)thio]-7-{[(1S,2S)-2-hydroxy-1-(hydroxymethyl)propyl]amino}thiazolo[4,5-d]pyrimidin-2(3B)-one]
IC50 (hrCXCR2): < 10 µM | antagonism of the CXCR2 receptor (GROα-induced intracellular calcium increase) [1]: antagonist | melting point: 202 to 204 °C
